Values of other authors in patent US8124123B2, “Controlled release azithromycin solid dosages forms” (Dow Pharmaceutical Sciences, Inc., priority 2007, dated 2012).

Experiments:
[1] = oral administration; reported with single 1000 mg dose and 1500 mg over 5 days

CC[C@H]1OC(=O)[C@H](C)[C@@H](O[C@H]2C[C@@](C)(OC)[C@@H](O)[C@H](C)O2)[C@H](C)[C@@H](O[C@@H]2O[C@H](C)C[C@H](N(C)C)[C@H]2O)[C@](C)(O)C[C@@H](C)CN(C)[C@H](C)[C@@H](O)[C@]1(C)O [azithromycin, 9-deoxo-9a-aza-9a-methyl-9a-homoerythromycin A]
gastrointestinal side effects [1]: dose-related incidence of gastrointestinal side effects | fraction of azithromycin released into the stomach that may be destroyed (about one hour in the stomach, low pH environment): approximately one third | chemical stability at pH 1 (pH found in stomach contents following a meal): chemically unstable
